Source: patent US20230167122A1, “PESTICIDALLY ACTIVE HETEROCYCLIC DERIVATIVES WITH SULFUR CONTAINING SUBSTITUENTS” (SYNGENTA CROP PROTECTION AG, priority 2020, published 2023)

Assays:
Assay type in all cases: in vivo
[1] = tested on: Tetranychus urticae (Two-Spotted Spider Mite); assay: Example B10: Activity against Tetranychus urticae (two-spotted spider mite), sprayed bean leaf discs; settings: foliar, 192 h, application rate of 200 ppm, mixed population (mobile stages) on bean leaf discs, 8 days after infestation
Experimental: Example B10: Activity Against Tetranychus urticae (Two-Spotted Spider Mite)
Bean leaf discs on agar in 24-well microtiter plates were sprayed with aqueous test solutions prepared from 10′000 ppm DMSO stock solutions. After drying the leaf discs were infested with a mite population of mixed ages. The samples were assessed for mortality on mixed population (mobile stages) 8 days after infestation.

[2] = tested on: Diabrotica balteata (Corn Root Worm); assay: Example B2: Activity against Diabrotica balteata (corn root worm), sprayed maize sprouts; settings: 96 h, application rate of 200 ppm, L2 larvae on maize sprouts, 4 days after infestation, read-out: effect in at least one of the two categories (mortality or growth inhibition)
Experimental: Example B2: Activity Against Diabrotica balteata (Corn Root Worm)
Maize sprouts placed onto an agar layer in 24-well microtiter plates were treated with aqueous test solutions prepared from 10′000 ppm DMSO stock solutions by spraying. After drying, the plates were infested with L2 larvae (6 to 10 per well). The samples were assessed for mortality and growth inhibition in comparison to untreated samples 4 days after infestation.

[3] = tested on: Nilaparvata lugens (Brown Plant Hopper); assay: Example B12: Activity against Nilaparvata lugens (brown plant hopper), larvicide, systemic into water; settings: 168 h, application rate of 12.5 ppm, systemic into nutritive solution, rice plants, N3 nymphs, 7 days after infestation
Experimental: Example B12: Activity Against Nilaparvata lugens (Brown Plant Hopper) Larvicide, Systemic into Water
Rice plants cultivated in a nutritive solution were treated with the diluted test solutions into nourishing cultivation system. 1 day after application plants were infested with ˜20 N3 nymphs. 7 days after infestation samples were assessed for mortality and growth regulation.

[4] = tested on: Bemisia tabaci (Cotton White Fly); assay: Example B1: Activity against Bemisia tabaci (cotton white fly), sprayed cotton leaf discs; settings: foliar, 144 h, application rate of 200 ppm, adult white flies on cotton leaf discs, 6 days after incubation
Experimental: Example B1: Activity Against Bemisia tabaci (Cotton White Fly)
Cotton leaf discs were placed on agar in 24-well microtiter plates and sprayed with aqueous test solutions prepared from 10′000 ppm DMSO stock solutions. After drying the leaf discs were infested with adult white flies. The samples were checked for mortality 6 days after incubation.

[5] = tested on: Myzus persicae (Green Peach Aphid); assay: Example B6: Activity against Myzus persicae (green peach aphid), sprayed sunflower leaf discs; settings: foliar, 144 h, application rate of 200 ppm, aphid population of mixed ages on sunflower leaf discs, 6 days after infestation
Experimental: Example B6: Activity Against Myzus persicae (Green Peach Aphid)
(§1) Sunflower leaf discs were placed on agar in a 24-well microtiter plate and sprayed with aqueous test solutions prepared from 10′000 ppm DMSO stock solutions. After drying, the leaf discs were infested with an aphid population of mixed ages. The samples were assessed for mortality 6 days after infestation.

[6] = tested on: Plutella xylostella (Diamond Back Moth); assay: Example B5: Activity against Plutella xylostella (diamond back moth), eggs, artificial diet; settings: 192 h, application rate of 200 ppm, 8 days after infestation, read-out: effect in at least one of the two categories (mortality or growth inhibition)
Experimental: Example B5: Activity Against Plutella xylostella (Diamond Back Moth)
24-well microtiter plates with artificial diet were treated with aqueous test solutions prepared from 10′000 ppm DMSO stock solutions by pipetting. After drying, Plutella eggs were pipetted through a plastic stencil onto a gel blotting paper and the plate was closed with it. The samples were assessed for mortality and growth inhibition in comparison to untreated samples 8 days after infestation.

[7] = tested on: Spodoptera littoralis (Egyptian Cotton Leaf Worm); assay: Example B9: Activity against Spodoptera littoralis (Egyptian cotton leaf worm), sprayed cotton leaf discs; settings: foliar, 72 h, application rate of 200 ppm, L1 larvae on cotton leaf discs, 3 days after infestation
Experimental: Example B9: Activity Against Spodoptera littoralis (Egyptian Cotton Leaf Worm)
Cotton leaf discs were placed onto agar in 24-well microtiter plates and sprayed with aqueous test solutions prepared from 10′000 ppm DMSO stock solutions. After drying the leaf discs were infested with five L1 larvae. The samples were assessed for mortality, anti-feeding effect, and growth inhibition in comparison to untreated samples 3 days after infestation. Control of Spodoptera littoralis by a test sample is given when at least one of the categories mortality, anti-feedant effect, and growth inhibition is higher than the untreated sample.

[8] = tested on: Euschistus heros (Neotropical Brown Stink Bug); assay: Example B3: Activity against Euschistus heros (neotropical brown stink bug), sprayed soybean leaf; settings: 120 h, application rate of 200 ppm, N-2 nymphs on soybean leaf, 5 days after infestation, read-out: effect in at least one of the two categories (mortality or growth inhibition)
Experimental: Example B3: Activity Against Euschistus heros (Neotropical Brown Stink Bug)
Soybean leaf on agar in 24-well microtiter plates were sprayed with aqueous test solutions prepared from 10′000 ppm DMSO stock solutions. After drying the leaf were infested with N-2 nymphs. The samples were assessed for mortality and growth inhibition in comparison to untreated samples 5 days after infestation.

[9] = tested on: Nilaparvata lugens (Brown Plant Hopper); assay: Example B11: Activity against Nilaparvata lugens (brown plant hopper), larvicide, feeding/contact; settings: 168 h, application rate of 50 ppm, N3 nymphs on sprayed rice plants, 7 days after the treatment
Experimental: Example B11: Activity Against Nilaparvata lugens (Brown Plant Hopper) Larvicide, Feeding/Contact
Rice plants were treated with the diluted test solutions in a spray chamber. After drying plants were infested with ˜20 N3 nymphs. 7 days after the treatment samples were assessed for mortality and growth regulation.

[10] = tested on: Frankliniella occidentalis (Western Flower Thrips); assay: Example B4: Activity against Frankliniella occidentalis (western flower thrips), sprayed sunflower leaf discs; settings: foliar, 168 h, application rate of 200 ppm, population of mixed ages on sunflower leaf discs, 7 days after infestation
Experimental: Example B4: Activity Against Frankliniella occidentalis (Western Flower Thrips)
as §1, with “in” for “in a”, “plates” for “plate”, “[…]” for “10′000 ppm”, “drying” for “drying,”, “a Frankliniella” for “an aphid”, “7” for “6”

[11] = tested on: Plutella xylostella (Diamond Back Moth); assay: Example B8: Activity against Plutella xylostella (diamond back moth), L2 larvae, artificial diet; settings: 120 h, application rate of 200 ppm, 5 days after infestation, read-out: effect in at least one of the two categories (mortality or growth inhibition)
Experimental: Example B8: Activity Against Plutella xylostella (Diamond Back Moth)
24-well microtiter plates with artificial diet were treated with aqueous test solutions prepared from 10′000 ppm DMSO stock solutions by pipetting. After drying, the plates were infested with L2 larvae (10 to 15 per well). The samples were assessed for mortality and growth inhibition in comparison to untreated samples 5 days after infestation.

Cn1c(-c2ncc(OC(C)(C)C#N)cc2S(=O)(=O)CC2CC2)nc2cc(C(F)(F)F)nnc21 [Compound P1, 2-[[5-(cyclopropylmethylsulfonyl)-6-[7-methyl-3-(trifluoromethyl)imidazo[4,5-c]pyridazin-6-yl]-3-pyridyl]oxy]-2-methyl-propanenitrile]
≥ 80%: mortality at 200 ppm [1] | percent effect (mortality or growth inhibition) at 200 ppm [2] | mortality at 12.5 ppm [3] | mortality at 200 ppm [4] | mortality at 200 ppm [5] | percent effect (mortality or growth inhibition) at 200 ppm [6] | percent control (mortality, anti-feedant effect or growth inhibition) at 200 ppm [7] | percent effect (mortality or growth inhibition) at 200 ppm [8] | mortality at 50 ppm [9]

CCS(=O)(=O)c1cc(OC(C)(C)C#N)cnc1-c1nc2cc(C(F)(F)F)cnc2n1C [Compound P3, 2-[[5-ethylsulfonyl-6-[3-methyl-6-(trifluoromethyl)imidazo[4,5-b]pyridin-2-yl]-3-pyridyl]oxy]-2-methyl-propanenitrile]
≥ 80%: mortality at 200 ppm [10] | percent effect (mortality or growth inhibition) at 200 ppm [2] | mortality at 200 ppm [4] | mortality at 200 ppm [5] | percent effect (mortality or growth inhibition) at 200 ppm [6] | percent control (mortality, anti-feedant effect or growth inhibition) at 200 ppm [7] | percent effect (mortality or growth inhibition) at 200 ppm [8]

CCn1c(C(F)(F)F)cc2nc(-c3ncc(OC(C)(C)C#N)cc3S(=O)(=O)CC)n(C)c2c1=O [Compound P6, 2-[[6-[5-ethyl-3-methyl-4-oxo-6-(trifluoromethyl)imidazo[4,5-c]pyridin-2-yl]-5-ethylsulfonyl-3-pyridyl]oxy]-2-methyl-propanenitrile]
≥ 80%: mortality at 200 ppm [10] | percent effect (mortality or growth inhibition) at 200 ppm [11] | percent effect (mortality or growth inhibition) at 200 ppm [2] | mortality at 200 ppm [4] | mortality at 200 ppm [5] | percent control (mortality, anti-feedant effect or growth inhibition) at 200 ppm [7] | percent effect (mortality or growth inhibition) at 200 ppm [8]

CCS(=O)(=O)c1cc(OC(C)(C)C#N)cnc1-c1nc2cc(C(F)(F)F)n(C3CC3)c(=O)c2n1C [Compound P7, 2-[[6-[5-cyclopropyl-3-methyl-4-oxo-6-(trifluoromethyl)imidazo[4,5-c]pyridin-2-yl]-5-ethylsulfonyl-3-pyridyl]oxy]-2-methyl-propanenitrile]
≥ 80%: mortality at 200 ppm [10] | percent effect (mortality or growth inhibition) at 200 ppm [11] | percent effect (mortality or growth inhibition) at 200 ppm [2] | percent control (mortality, anti-feedant effect or growth inhibition) at 200 ppm [7] | percent effect (mortality or growth inhibition) at 200 ppm [8]

CCS(=O)(=O)c1cc(OC(C)(C)C#N)cnc1-c1cn2ccc(C(F)(F)F)cc2n1 [Compound P8, 2-[[5-ethylsulfonyl-6-[7-(trifluoromethyl)imidazo[1,2-a]pyridin-2-yl]-3-pyridyl]oxy]-2-methyl-propanenitrile]
≥ 80%: mortality at 200 ppm [1] | mortality at 200 ppm [10] | percent effect (mortality or growth inhibition) at 200 ppm [11] | percent effect (mortality or growth inhibition) at 200 ppm [2] | mortality at 200 ppm [5] | percent control (mortality, anti-feedant effect or growth inhibition) at 200 ppm [7] | percent effect (mortality or growth inhibition) at 200 ppm [8]

CCS(=O)(=O)c1cc(OC(C)(C)C#N)cnc1-c1cn2ncc(C(F)(F)F)cc2n1 [Compound P9, 2-[[5-ethylsulfonyl-6-[7-(trifluoromethyl)imidazo[1,2-b]pyridazin-2-yl]-3-pyridyl]oxy]-2-methyl-propanenitrile]
≥ 80%: mortality at 200 ppm [10] | percent effect (mortality or growth inhibition) at 200 ppm [11] | percent effect (mortality or growth inhibition) at 200 ppm [2] | mortality at 12.5 ppm [3] | mortality at 200 ppm [4] | mortality at 200 ppm [5] | percent control (mortality, anti-feedant effect or growth inhibition) at 200 ppm [7] | mortality at 50 ppm [9]

CCS(=O)(=O)c1cc(OC(C)(C)C#N)ccc1-n1cc2cnc(C(F)(F)F)cc2n1 [Compound P10, 2-[3-ethylsulfonyl-4-[6-(trifluoromethyl)pyrazolo[4,3-c]pyridin-2-yl]phenoxy]-2-methyl-propanenitrile]
≥ 80%: mortality at 200 ppm [1] | mortality at 200 ppm [10] | percent effect (mortality or growth inhibition) at 200 ppm [11] | percent effect (mortality or growth inhibition) at 200 ppm [2] | mortality at 12.5 ppm [3] | mortality at 200 ppm [4] | mortality at 200 ppm [5] | percent control (mortality, anti-feedant effect or growth inhibition) at 200 ppm [7] | percent effect (mortality or growth inhibition) at 200 ppm [8] | mortality at 50 ppm [9]

CCS(=O)(=O)c1cc(OC(C)(C)C#N)ccc1-c1nc2cc(C(F)(F)F)nnc2n1C [Compound P12, 2-[3-ethylsulfonyl-4-[7-methyl-3-(trifluoromethyl)imidazo[4,5-c]pyridazin-6-yl]phenoxy]-2-methyl-propanenitrile]
≥ 80%: mortality at 200 ppm [10] | percent effect (mortality or growth inhibition) at 200 ppm [11] | percent effect (mortality or growth inhibition) at 200 ppm [2] | mortality at 200 ppm [4] | mortality at 200 ppm [5] | percent control (mortality, anti-feedant effect or growth inhibition) at 200 ppm [7] | percent effect (mortality or growth inhibition) at 200 ppm [8]

CCS(=O)(=O)c1cc(OC(C)(C)C#N)cnc1-c1nc2cc(SC(F)(F)F)ccc2n1C [Compound P13, 2-[[5-ethylsulfonyl-6-[1-methyl-5-(trifluoromethylsulfanyl)benzimidazol-2-yl]-3-pyridyl]oxy]-2-methyl-propanenitrile]
≥ 80%: mortality at 200 ppm [10] | percent effect (mortality or growth inhibition) at 200 ppm [2] | mortality at 200 ppm [4] | mortality at 200 ppm [5] | percent effect (mortality or growth inhibition) at 200 ppm [6] | percent control (mortality, anti-feedant effect or growth inhibition) at 200 ppm [7] | percent effect (mortality or growth inhibition) at 200 ppm [8]

CCS(=O)(=O)c1cc(OC(C)(C)C#N)cnc1-c1nc2cc(S(=O)(=O)C(F)(F)F)ccc2n1C [Compound P14, 2-[[5-ethylsulfonyl-6-[1-methyl-5-(trifluoromethylsulfonyl)benzimidazol-2-yl]-3-pyridyl]oxy]-2-methyl-propanenitrile]
≥ 80%: mortality at 200 ppm [10] | percent effect (mortality or growth inhibition) at 200 ppm [2] | mortality at 200 ppm [4] | mortality at 200 ppm [5] | percent effect (mortality or growth inhibition) at 200 ppm [6] | percent control (mortality, anti-feedant effect or growth inhibition) at 200 ppm [7] | percent effect (mortality or growth inhibition) at 200 ppm [8]
